From US20260240842A1, “METHODS TO PREVENT THERAPY RESISTANCE IN MELANOMA VIA BLOCKING GENOMIC INSTABILITY” (THE REGENTS OF THE UNIVERSITY OF CALIFORNIA, priority 2022, published 2026)

Test system: KRAS^G12C NSCLC cell lines (H358, H2122)
Test: Long-term clonogenic growth, acquired MAPKi resistance in NSCLC cell lines
Type: cell-based, human
Conditions: combined with MAPKi; FIG. 6G to 6J
Text: FIGS. 6A-6J. DNA-PKi co-treatment prevents acquired MAPKi-resistance in KRAS^G12 human pancreatic ductal adenocarcinoma and non-small cell lung carcinoma cell lines. FIGS. 6A to 6J: Long-term clonogenic growth of PDAC (MIAPaCa-2, XWR200) (6A to 6F) or NSCLC (H358, H2122) (6G to 6J) cell lines showing acquired-resistant colonies to MEKi alone, type II RAFi+MEKi, or KRAS G12Ci+MEKi and their suppression by indicated co-treatments with DNA-PKi (NU7026) and/or PARPi (ABT888) at indicated concentrations. Top, representative cultures; bottom, quantifications over n=4 fields (mean±SD). Data representative of 2 independent repeats. Seeding densities (cells/well in 6-well dishes) and culture durations: MIAPaCa-2 (10,000; 30 days for 6A-6C), XWR200 (150,000; 23 days for 6D, 30 days for 6E, 26 days for 6F), H358 (40,000; 14 days for 6G, 29 days for 6H, 26 days for 6I), H2122 (20,000, 22 days for 6J). […]
For clonogenic assay, cells were plated at indicated cell densities in six-well plates and treated with inhibitor(s) the next day. […] Formazan was then dissolved in 100 μL DMSO, and the absorbance values were measured using an ELISA reader (SpectraMax Plus 384) at the wavelength of 570 nm, blanked with DMSO solution. […]

| Structure (SMILES) | suppression of acquired MAPKi resistance, number of NSCLC cell lines |
| --- | --- |
| O=c1cc(N2CCOCC2)oc2c1ccc1ccccc12 [NU7026] | one of two |
| C[C@]1(c2nc3c(C(N)=O)cccc3[nH]2)CCCN1 [ABT888, veliparib] | generally ineffective |
